Test results published in patent publication US11753407B2, “Compounds for treating spinal muscular atrophy” (PTC Therapeutics, Inc., priority 2012, dated 2023).

Key:
[1] = system: SMN2 minigene mRNA (SMN2-A minigene) in HEK293H cells; test: SMN2 minigene mRNA splicing RT-qPCR assay in cultured cells; format: cell-based, human; conditions: Homo sapiens, HEK293-H; concentration increasing full length SMN2 mRNA 1.5-fold relative to vehicle-treated cells; HEK293H cells with SMN2-A minigene, 24 hours, 7-point concentration data; read-out: EC1.5x for production of full length SMN2 mRNA
Protocol: The reverse transcription-quantitative PCR-based (RT-qPCR) assay is used to quantify the level of the full length SMN2 minigene mRNA containing SMN2 exon 7 in a HEK293H cell line stably transfected with said minigene and treated with a test compound.
Protocol. HEK293H cells stably transfected with the SMN2-A minigene construct described above (10,000 cells/well) are seeded in 200 μL of cell culture medium (DMEM plus 10% FBS, with 200 μg/mL hygromycin) in 96-well flat-bottom plates and the plate is immediately swirled to ensure proper dispersal of cells, forming an even monolayer of cells. Cells are allowed to attach for at least 4-6 hours. Test compounds are serially diluted 3.16-fold in 100% DMSO to generate a 7-point concentration curve. A solution of test compound (1 μL, 200× in DMSO) is added to each cell-containing well and the plate is incubated for 24 hours in a cell culture incubator (37° C., 5% CO2, 100% relative humidity). 2 replicates are prepared for each test compound concentration. The cells are then lysed in Cells-To-Ct lysis buffer and the lysate is stored at −80° C.
Primer SMN Forward A (SEQ ID NO. 1) hybridizes to a nucleotide sequence in exon 7 (nucleotide 22 to nucleotide 40), primer SMN Reverse A (SEQ ID NO. 2) hybridizes to a nucleotide sequence in the coding sequence of Firefly luciferase, SMN Probe A (SEQ ID NO. 3) hybridizes to a nucleotide sequence in exon 7 (nucleotide 50 to nucleotide 54) and exon 8 (nucleotide 1 to nucleotide 21). The combination of these three oligonucleotides detects only SMN1 or SMN2 minigenes (RT-qPCR) and will not detect endogenous SMN1 or SMN2 genes.
The SMN forward and reverse primers are used at final concentrations of 0.4 μM. The SMN probe is used at a final concentration of 0.15 μM. The GAPDH primers are used at final concentrations of 0.2 μM and the probe at 0.15 μM.
The SMN2-minigene GAPDH mix (15 μL total volume) is prepared by combining 7.5 μL of 2× RT-PCR buffer, 0.4 μL of 25× RT-PCR enzyme mix, 0.75 μL of 20× GAPDH primer-probe mix, 4.0075 μL of water, 2 μL of 10-fold diluted cell lysate, 0.06 μL of 100 μM SMN forward primer, 0.06 μL of 100 μM SMN reverse primer, and […].
PCR is carried out at the following temperatures for the indicated time: Step 1: 48° C. (15 min); Step 2: 95° C. (10 min); Step 3: 95° C. (15 sec); Step 4: 60° C. (1 min); then repeat Steps 3 and 4 for a total of 40 cycles.
Each reaction mixture contains both SMN2-A minigene and GAPDH primers/probe sets (multiplex design), allowing simultaneous measurement of the levels of two transcripts.
Two SMN spliced products are generated from the SMN2 minigene. The first spliced product containing exon 7, corresponding to full length SMN2 mRNA, is referred to herein using the term “SMN2 minigene FL.” The second spliced product lacking exon 7 is referred to herein using the term “SMN2 minigene Δ7.”
The increase of SMN2 minigene FL mRNA relative to that in cells treated with vehicle control is determined from real-time PCR data using a modified ΔΔCt method (as described in Livak and Schmittgen, Methods, 2001, 25:402-8). The amplification efficiency (E) is calculated from the slope of the amplification curve for SMN2 minigene FL and GAPDH individually. The abundances of SMN2 minigene FL and GAPDH are then calculated as (1+E)^−Ct, where Ct is the threshold value for each amplicon. The abundance of SMN2 minigene FL is normalized to GAPDH abundance. The normalized SMN2 minigene FL abundance from test compound-treated samples is then divided by normalized SMN2 minigene FL abundance from vehicle-treated cells to determine the level of SMN2 FL mRNA relative to vehicle control.
For compounds of Formula (I) or a form thereof disclosed herein, Table 4 provides the […] for production of full length SMN2 mRNA that was obtained from the 7-point concentration data generated for each test compound according to the procedure of Biological Example 2. […]

[2] = system: Smn protein in SMA patient fibroblast cells (GM03813); test: Smn protein assay in cultured cells (SMN HTRF); format: cell-based, human; conditions: SMA patient fibroblast cells, 48 hours; for EC1.5x for Smn protein expression: 7-point concentration curve, SMN HTRF, concentration producing 1.5 times Smn protein vs DMSO vehicle control; for maximum fold (Fold) increase of Smn protein: 7-point concentration data, fold relative to vehicle control
Protocol: The SMN HTRF (homogeneous time resolved fluorescence) assay is used to quantify the level of Smn protein in SMA patient fibroblast cells treated with test compounds.
Protocol. Cells are thawed and cultured in DMEM-10% FBS for 72 hours. Cells are trypsinized, counted and re-suspended to a concentration of 25,000 cells/mL in DMEM-10% FBS. The cell suspension is plated at 5,000 cells per well in a 96 well microtiter plate and incubated for 3 to 5 hours. […] Test compounds are serially diluted 3.16-fold in 100% DMSO to generate a 7-point concentration curve. 1 μL of test compound solution is transferred to cell-containing wells and cells are incubated for 48 hours in a cell culture incubator (37° C., 5% CO2, 100% relative humidity). Triplicate samples are set up for each test compound concentration. After 48 hours, the supernatant is removed from the wells and 25 μL of the RIPA lysis buffer, containing protease inhibitors, is added to the wells and incubated with shaking at room temperature for 1 hour. 25 μL of the diluent is added and then 35 μL of the resulting lysate is transferred to a 384-well plate, where each well contains 5 μL of the antibody solution (1:100 dilution of anti-SMN d2 and anti-SMN kryptate in SMN reconstitution buffer). The plate is centrifuged for 1 minute to bring the solution to the bottom of the wells, then incubated overnight at room temperature. Fluorescence for each well of the plate at 665 nm and 620 nm is measured on an EnVision multilabel plate reader (Perkin-Elmer).
The normalized fluorescence signal is calculated for each sample, Blank and vehicle control well by dividing the signal at 665 nm by the signal at 620 nm. Normalizing the signal accounts for possible fluorescence quenching due to the matrix effect of the lysate. The ΔF value (a measurement of Smn protein abundance as a percent value) for each sample well is calculated by subtracting the normalized average fluorescence for the Blank control wells from the normalized fluorescence for each sample well, then dividing this difference by the normalized average fluorescence for the Blank control wells and multiplying the resulting value by 100. The ΔF value for each sample well represents the Smn protein abundance from test compound-treated samples. The ΔF value for each sample well is divided by the ΔF value for the vehicle control wells to calculate the fold increase in Smn protein abundance relative to the vehicle control.
For compounds of Formula (I) or a form thereof disclosed herein, Table 9 provides the EC1.5× for Smn protein expression that was obtained from the 7-point concentration data generated for each test compound according to the procedure of Biological Example 7. The term “EC1.5× for Smn protein expression” is defined as that concentration of test compound that is effective in producing 1.5 times the amount of Smn protein in an SMA patient fibroblast cell compared to the amount produced from the DMSO vehicle control. An EC1.5× for Smn protein expression between >3 μM and ≤10 μM is indicated by one star (*), an EC1.5× between >1 μM and ≤3 μM is indicated by two stars (**), an EC1.5× between >0.3 μM and ≤1 μM is indicated by three stars (***) and an EC1.5x≤0.3 μM is indicated by four stars (****).
For compounds of Formula (I) or a form thereof disclosed herein, Table 10 provides the maximum fold (Fold) increase of Smn protein that was obtained from the 7-point concentration data generated for each test compound according to the procedure of Biological Example 7. A maximum fold increase of ≤1.2 is indicated by one star (*), a fold increase between >1.2 and ≤1.35 is indicated by two stars (**), a fold increase between >1.35 and ≤1.5 is indicated by three stars (***), a fold increase between >1.5 and ≤1.65 is indicated by four stars (****) and a fold increase >1.65 is indicated by five stars (*****).

SMILES | EC (1.5-fold increase) [1] | EC1.5x for Smn protein expression [2] | maximum fold (Fold) increase of Smn protein [2]
Cc1nc2ccc(-c3cc(=O)n4cc(N5CCC(N)CC5)ccc4n3)cc2o1 [Compound 242, 7-(4-aminopiperidin-1-yl)-2-(2-methyl-1,3-benzoxazol-6-yl)-4H-pyrido[1,2-a]pyrimidin-4-one] | < 0.1 µM | **** (an EC1.5x≤0.3 μM is indicated by four stars (****)) | **** (a fold increase between >1.5 and ≤1.65 is indicated by four stars (****))
Cc1nc2ccc(-c3cc(=O)n4cc(N5C[C@H]6CNC[C@H]6C5)ccc4n3)cc2o1 [Compound 243, 7-[(3aR,6aS)-hexahydropyrrolo[3,4-c]pyrrol-2(1H)-yl]-2-(2-methyl-1,3-benzoxazol-6-yl)-4H-pyrido[1,2-a]pyrimidin-4-one] | < 0.1 µM | **** (an EC1.5x≤0.3 μM is indicated by four stars (****)) | **** (a fold increase between >1.5 and ≤1.65 is indicated by four stars (****))
Cc1cn2cc(-c3cc(=O)n4cc(N5CCN(C)CC5)ccc4n3)cc(F)c2n1 [Compound 269, 2-(8-fluoro-2-methylimidazo[1,2-a]pyridin-6-yl)-7-(4-methylpiperazin-1-yl)-4H-pyrido[1,2-a]pyrimidin-4-one] | < 0.1 µM | **** (an EC1.5x≤0.3 μM is indicated by four stars (****)) | ***** (a fold increase >1.65 is indicated by five stars (*****))
Cc1cn2cc(-c3cc(=O)n4cc(N5CCN[C@H](C)C5)ccc4n3)cc(F)c2n1 [Compound 270, 2-(8-fluoro-2-methylimidazo[1,2-a]pyridin-6-yl)-7-[(3R)-3-methylpiperazin-1-yl]-4H-pyrido[1,2-a]pyrimidin-4-one] | < 0.1 µM | **** (an EC1.5x≤0.3 μM is indicated by four stars (****)) | **** (a fold increase between >1.5 and ≤1.65 is indicated by four stars (****))
Cc1cn2cc(-c3cc(=O)n4cc(N5CCC(N)CC5)ccc4n3)cc(F)c2n1 [Compound 273, 7-(4-aminopiperidin-1-yl)-2-(8-fluoro-2-methylimidazo[1,2-a]pyridin-6-yl)-4H-pyrido[1,2-a]pyrimidin-4-one] | < 0.1 µM | **** (an EC1.5x≤0.3 μM is indicated by four stars (****)) | ***** (a fold increase >1.65 is indicated by five stars (*****))
Cc1nc2ccc(-c3cc(=O)n4cc(N5CCC(N(C)C)CC5)ccc4n3)cc2s1 [Compound 285, 7-[4-(dimethylamino)piperidin-1-yl]-2-(2-methyl-1,3-benzothiazol-6-yl)-4H-pyrido[1,2-a]pyrimidin-4-one] | < 0.1 µM | **** (an EC1.5x≤0.3 μM is indicated by four stars (****)) | ***** (a fold increase >1.65 is indicated by five stars (*****))
Cc1nc2ccc(-c3cc(=O)n4cc(C5=CCNCC5)ccc4n3)cc2o1 [Compound 302, 2-(2-methyl-1,3-benzoxazol-6-yl)-7-(1,2,3,6-tetrahydropyridin-4-yl)-4H-pyrido[1,2-a]pyrimidin-4-one] | < 0.1 µM | **** (an EC1.5x≤0.3 μM is indicated by four stars (****)) | ***** (a fold increase >1.65 is indicated by five stars (*****))
Cc1nc2c(F)cc(-c3cc(=O)n4cc(N5CCN(C)CC5)ccc4n3)cc2o1 [Compound 308, 2-(4-fluoro-2-methyl-1,3-benzoxazol-6-yl)-7-(4-methylpiperazin-1-yl)-4H-pyrido[1,2-a]pyrimidin-4-one] | < 0.1 µM | **** (an EC1.5x≤0.3 μM is indicated by four stars (****)) | ***** (a fold increase >1.65 is indicated by five stars (*****))
COc1ccc(-c2cc(=O)n3cc(C4C[C@H]5CC[C@@H](C4)N5C)ccc3n2)cc1OC (stereo partly drawn) [Compound 320, 2-(3,4-dimethoxyphenyl)-7-[(1R,5S)-8-methyl-8-azabicyclo[3.2.1]oct-3-yl]-4H-pyrido[1,2-a]pyrimidin-4-one] | 0.3 to 1 µM | ** (an EC1.5× between >1 μM and ≤3 μM is indicated by two stars (**)) | **** (a fold increase between >1.5 and ≤1.65 is indicated by four stars (****))
